The source of these data is patent US20250382344A1, “Soluble GLP1/GIP/NPY2 Receptor Triple Agonists” (Boehringer Ingelheim International GmH, priority 2024, published 2025).

Series [1] has as its target T1, hGIPR (Homo sapiens, UniProt P48546).
T1 construct: expressed in transfected cells; host or cells: CHO CRE-luciferase reporter cells
T1 sequence (P48546 22-466): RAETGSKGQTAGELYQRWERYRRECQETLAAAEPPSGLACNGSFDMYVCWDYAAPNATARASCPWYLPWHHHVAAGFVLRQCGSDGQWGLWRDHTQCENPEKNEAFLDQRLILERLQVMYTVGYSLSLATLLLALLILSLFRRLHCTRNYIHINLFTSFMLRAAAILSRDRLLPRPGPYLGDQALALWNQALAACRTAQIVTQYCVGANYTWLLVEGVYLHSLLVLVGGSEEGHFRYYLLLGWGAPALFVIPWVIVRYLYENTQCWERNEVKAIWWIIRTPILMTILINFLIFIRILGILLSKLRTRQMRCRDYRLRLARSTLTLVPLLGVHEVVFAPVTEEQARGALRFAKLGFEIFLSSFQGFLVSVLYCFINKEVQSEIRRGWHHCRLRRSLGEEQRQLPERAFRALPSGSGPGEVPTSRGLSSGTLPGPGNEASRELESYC
The experiment in a line: hGIPR CreLuc assay in 0.5% and 100% plasma (CHO CRE-luciferase reporter cells). The class given is cell-based.

The nature of series [2]: Solubility in 0.1 M phosphate buffer at pH 7. Format: physicochemical. The settings on record: 0.1 M phosphate buffer at pH 7, 10 mg/mL final peptide concentration, shaking 2 hours at room temperature, peptides as TFA-salts; measured sample pH 6.5-7.0.
The target in series [3] is T2, hGLP1R (Homo sapiens, UniProt P43220).
T2 construct: expressed in transfected cells; host or cells: HEK-293 CRE-luciferase reporter cells
The series is described as follows: hGLP1R CreLuc assay in 0.5% and 100% plasma (HEK-293 CRE-luciferase reporter cells). Format: cell-based. As to conditions: HEK-293 reporter cells.

The mark [4] stands for this setting: 0.5% human plasma, read-out: hGIPR 0.5% hP.
[5] abbreviates: 0.5% human plasma, read-out: hGLP1R 0.5% hP.
Setting [6] is: 100% human plasma, read-out: hGLP1R 100% hP.

Like-named read-outs stand apart in the source and are kept apart here.

T2 sequence (P43220 24-463): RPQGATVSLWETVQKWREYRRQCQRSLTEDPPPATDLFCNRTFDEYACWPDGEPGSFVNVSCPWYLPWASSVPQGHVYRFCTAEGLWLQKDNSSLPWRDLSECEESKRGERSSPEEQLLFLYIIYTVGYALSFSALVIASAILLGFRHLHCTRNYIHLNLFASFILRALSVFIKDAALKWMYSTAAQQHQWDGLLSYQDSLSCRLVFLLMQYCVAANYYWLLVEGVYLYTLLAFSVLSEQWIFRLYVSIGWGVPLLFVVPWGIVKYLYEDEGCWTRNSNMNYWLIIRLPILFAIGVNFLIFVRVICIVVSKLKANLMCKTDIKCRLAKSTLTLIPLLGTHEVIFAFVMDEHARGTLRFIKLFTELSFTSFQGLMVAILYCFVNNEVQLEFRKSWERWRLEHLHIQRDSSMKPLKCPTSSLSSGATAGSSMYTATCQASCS

As to `CC[C@H](C)[C@H](NC(=O)[C@H](CC(C)C)NC(=O)[C@H](Cc1c[nH]cn1)NC(=O)[C@H](CCCNC(=N)N)NC(=O)[C@@H](NC(=O)[C@H](Cc1ccccc1)NC(=O)[C@H](C)NC(=O)C(C)(C)NC(=O)[C@H](CCC(N)=O)NC(=O)[C@H](C)NC(=O)[C@H](CCC(=O)O)NC(=O)[C@H](CCC(=O)O)NC(=O)[C@H](CCC(=O)O)NC(=O)[C@H](CC(C)C)NC(=O)C(C)(C)NC(=O)[C@@H](NC(=O)[C@H](CO)NC(=O)[C@H](Cc1ccc(O)cc1)NC(=O)[C@H](CC(=O)O)NC(=O)[C@H](CO)NC(=O)[C@@H](NC(=O)[C@H](Cc1ccccc1)NC(=O)[C@@H](NC(=O)CNC(=O)[C@H](CCC(=O)O)NC(=O)C(C)(C)NC(=O)[C@@H](N)Cc1ccc(O)cc1)[C@@H](C)O)[C@@H](C)O)[C@@H](C)CC)C(C)C)C(=O)N[C@@H](CC(N)=O)C(=O)N[C@@H](CCCCNC(=O)CC[C@H](NC(=O)CC[C@H](NC(=O)CC[C@H](NC(=O)CC[C@H](NC(=O)CCCCCCCCCCCCCCCCC(=O)O)C(=O)O)C(=O)O)C(=O)O)C(=O)O)C(=O)NC(C)(C)C(=O)N[C@H](C(=O)N[C@@H](CCCNC(=N)N)C(=O)N[C@@H](CCC(N)=O)C(=O)N[C@@H](CCCNC(=N)N)C(=O)N[C@@H](Cc1ccc(O)cc1)C(N)=O)[C@@H](C)O` [Compound 25, Y-Aib-E-G-T-F-T-S-D-Y-S-I-Aib-L-E-E-E-A-Q-Aib-A-F-V-R-H-L-I-N-K(1,3)-Aib-T-R-Q-R-Y-NH2.C18DA-gGlu-gGlu-gGlu-gGlu(1,2)], the EC50 in series [1] (setting [4]) was 400 pM; in series [3] (setting [5]) it was 700 pM; in series [3] (setting [6]), 2000 pM. The solubility at 2 h in series [2] came out at 4800 µg/mL.
Consider `CC[C@H](C)[C@H](NC(=O)[C@H](CC(C)C)NC(=O)[C@H](Cc1c[nH]cn1)NC(=O)[C@H](CCCNC(=N)N)NC(=O)[C@@H](NC(=O)[C@H](Cc1ccccc1)NC(=O)[C@H](CCC(=O)O)NC(=O)C(C)(C)NC(=O)[C@H](CCC(N)=O)NC(=O)[C@H](C)NC(=O)[C@H](CCC(N)=O)NC(=O)[C@H](CCCCN)NC(=O)[C@H](CCC(=O)O)NC(=O)[C@H](CC(C)C)NC(=O)C(C)(C)NC(=O)[C@@H](NC(=O)[C@H](CO)NC(=O)[C@H](Cc1ccc(O)cc1)NC(=O)[C@H](CC(=O)O)NC(=O)[C@H](CO)NC(=O)[C@@H](NC(=O)[C@H](Cc1ccccc1)NC(=O)[C@@H](NC(=O)CNC(=O)[C@H](CCC(=O)O)NC(=O)C(C)(C)NC(=O)[C@@H](N)Cc1ccc(O)cc1)[C@@H](C)O)[C@@H](C)O)[C@@H](C)CC)C(C)C)C(=O)N[C@@H](CC(N)=O)C(=O)N[C@@H](CCCCNC(=O)[C@@H](N)CCCCNC(=O)CC[C@H](NC(=O)CC[C@H](NC(=O)CC[C@H](NC(=O)CC[C@H](NC(=O)CC[C@H](NC(=O)CC[C@H](NC(=O)CC[C@H](NC(=O)CCCCCCCCCCCCCCCCC(=O)O)C(=O)O)C(=O)O)C(=O)O)C(=O)O)C(=O)O)C(=O)O)C(=O)O)C(=O)NC(C)(C)C(=O)N[C@H](C(=O)N[C@@H](CCCNC(=N)N)C(=O)N[C@@H](CCC(N)=O)C(=O)N[C@@H](CCCNC(=N)N)C(=O)N[C@@H](Cc1ccc(O)cc1)C(N)=O)[C@@H](C)O` [Compound 30, Y-Aib-E-G-T-F-T-S-D-Y-S-I-Aib-L-E-K-Q-A-Q-Aib-E-F-V-R-H-L-I-N-K(1,3)-Aib-T-R-Q-R-Y-NH2.C18DA-gGlu-gGlu-gGlu-gGlu-gGlu-gGlu-gGlu-eLys(1,2)], for which the EC50 in series [1] (setting [4]) was found to be 300 pM; in series [3] (setting [6]), 900 pM. In series [2], the solubility at 2 h stood at 4700 µg/mL.
Turning to `CC[C@H](C)[C@H](NC(=O)[C@H](CCCCN)NC(=O)[C@H](CC(=O)O)NC(=O)[C@H](CC(C)C)NC(=O)C(C)(C)NC(=O)[C@@H](NC(=O)[C@H](CO)NC(=O)[C@H](Cc1ccc(O)cc1)NC(=O)[C@H](CC(=O)O)NC(=O)[C@H](CO)NC(=O)[C@@H](NC(=O)[C@H](Cc1ccccc1)NC(=O)[C@@H](NC(=O)CNC(=O)[C@H](CCC(=O)O)NC(=O)C(C)(C)NC(=O)[C@@H](N)Cc1ccc(O)cc1)[C@@H](C)O)[C@@H](C)O)[C@@H](C)CC)C(=O)N[C@@H](C)C(=O)N[C@@H](CCC(N)=O)C(=O)NC(C)(C)C(=O)N[C@@H](C)C(=O)N[C@@H](Cc1ccccc1)C(=O)N[C@H](C(=O)N[C@@H](CCCNC(=N)N)C(=O)N[C@@H](Cc1c[nH]cn1)C(=O)N[C@@H](CC(C)C)C(=O)N[C@H](C(=O)N[C@@H](CC(N)=O)C(=O)N[C@@H](CCCCNC(=O)[C@@H](N)CCCCNC(=O)CC[C@H](NC(=O)CC[C@H](NC(=O)CC[C@H](NC(=O)CC[C@H](NC(=O)CC[C@H](NC(=O)CC[C@H](NC(=O)CCCCCCCCCCCCCCCCC(=O)O)C(=O)O)C(=O)O)C(=O)O)C(=O)O)C(=O)O)C(=O)O)C(=O)NC(C)(C)C(=O)N[C@H](C(=O)N[C@@H](CCCNC(=N)N)C(=O)N[C@@H](CCC(N)=O)C(=O)N[C@@H](CCCNC(=N)N)C(=O)N[C@@H](Cc1ccc(O)cc1)C(N)=O)[C@@H](C)O)[C@@H](C)CC)C(C)C` [Compound 33, Y-Aib-E-G-T-F-T-S-D-Y-S-I-Aib-L-D-K-I-A-Q-Aib-A-F-V-R-H-L-I-N-K(1,3)-Aib-T-R-Q-R-Y-NH2.C18DA-gGlu-gGlu-gGlu-gGlu-gGlu-gGlu-eLys(1,2)], the EC50 was determined as 700 pM in series [1] (setting [4]), 100 pM in series [3] (setting [5]) and 1000 pM in series [3] (setting [6]). The solubility at 2 h in series [2] worked out at 8900 µg/mL.
For `CC[C@H](C)[C@H](NC(=O)[C@H](CC(C)C)NC(=O)[C@H](Cc1c[nH]cn1)NC(=O)[C@H](CCCNC(=N)N)NC(=O)[C@@H](NC(=O)[C@H](Cc1ccccc1)NC(=O)[C@H](C)NC(=O)C(C)(C)NC(=O)[C@H](CCC(N)=O)NC(=O)[C@H](C)NC(=O)[C@H](CCC(N)=O)NC(=O)[C@H](CCCCN)NC(=O)[C@H](CCC(=O)O)NC(=O)[C@H](CC(C)C)NC(=O)C(C)(C)NC(=O)[C@@H](NC(=O)[C@H](CO)NC(=O)[C@H](Cc1ccc(O)cc1)NC(=O)[C@H](CC(=O)O)NC(=O)[C@H](CO)NC(=O)[C@@H](NC(=O)[C@H](Cc1ccccc1)NC(=O)[C@@H](NC(=O)CNC(=O)[C@H](CCC(=O)O)NC(=O)C(C)(C)NC(=O)[C@@H](N)Cc1ccc(O)cc1)[C@@H](C)O)[C@@H](C)O)[C@@H](C)CC)C(C)C)C(=O)N[C@@H](CC(N)=O)C(=O)N[C@@H](CCCCNC(=O)CC[C@H](NC(=O)CC[C@H](NC(=O)[C@@H](N)CCCCNC(=O)CC[C@H](NC(=O)CC[C@H](NC(=O)CC[C@H](NC(=O)CC[C@H](NC(=O)CCCCCCCCCCCCCCCCC(=O)O)C(=O)O)C(=O)O)C(=O)O)C(=O)O)C(=O)O)C(=O)O)C(=O)NC(C)(C)C(=O)N[C@H](C(=O)N[C@@H](CCCNC(=N)N)C(=O)N[C@@H](CCC(N)=O)C(=O)N[C@@H](CCCNC(=N)N)C(=O)N[C@@H](Cc1ccc(O)cc1)C(N)=O)[C@@H](C)O` [Compound 34, Y-Aib-E-G-T-F-T-S-D-Y-S-I-Aib-L-E-K-Q-A-Q-Aib-A-F-V-R-H-L-I-N-K(1,3)-Aib-T-R-Q-R-Y-NH2.C18DA-gGlu-gGlu-gGlu-gGlu-eLys-gGlu-gGlu(1,2)], the EC50 in series [1] (setting [4]) came to 200 pM; in series [3] (setting [5]), 300 pM. Besides, the solubility at 2 h in series [2] was found to be 10600 µg/mL.
On to `CC[C@H](C)[C@H](NC(=O)[C@H](CC(C)C)NC(=O)[C@H](Cc1c[nH]cn1)NC(=O)[C@H](CCCNC(=N)N)NC(=O)[C@@H](NC(=O)[C@H](Cc1ccccc1)NC(=O)[C@H](C)NC(=O)C(C)(C)NC(=O)[C@H](CCC(N)=O)NC(=O)[C@H](C)NC(=O)[C@H](CCC(N)=O)NC(=O)[C@H](CCCCN)NC(=O)[C@H](CCC(=O)O)NC(=O)[C@H](CC(C)C)NC(=O)C(C)(C)NC(=O)[C@@H](NC(=O)[C@H](CO)NC(=O)[C@H](Cc1ccc(O)cc1)NC(=O)[C@H](CC(=O)O)NC(=O)[C@H](CO)NC(=O)[C@@H](NC(=O)[C@H](Cc1ccccc1)NC(=O)[C@@H](NC(=O)CNC(=O)[C@H](CCC(=O)O)NC(=O)C(C)(C)NC(=O)[C@@H](N)Cc1ccc(O)cc1)[C@@H](C)O)[C@@H](C)O)[C@@H](C)CC)C(C)C)C(=O)N[C@@H](CC(N)=O)C(=O)N[C@@H](CCCCNC(=O)CC[C@H](NC(=O)CC[C@H](NC(=O)CC[C@H](NC(=O)CC[C@H](NC(=O)CC[C@H](NC(=O)CCCCCCCCCCCCCCCCC(=O)O)C(=O)O)C(=O)O)C(=O)O)C(=O)O)C(=O)O)C(=O)N[C@H](C(=O)N[C@H](C(=O)N[C@@H](CCCNC(=N)N)C(=O)N[C@@H](CCC(N)=O)C(=O)N[C@@H](CCCNC(=N)N)C(=O)N[C@@H](Cc1ccc(O)cc1)C(N)=O)[C@@H](C)O)[C@@H](C)CC` [Compound 41, Y-Aib-E-G-T-F-T-S-D-Y-S-I-Aib-L-E-K-Q-A-Q-Aib-A-F-V-R-H-L-I-N-K(1,3)-I-T-R-Q-R-Y-NH2.C18DA-gGlu-gGlu-gGlu-gGlu-gGlu(1,2)], for which the EC50 in series [1] (setting [4]) is 300 pM; in series [1] (100% human plasma, read-out: hGIPR 100% hP), 7100 pM; in series [3] (setting [5]) it was 900 pM; in series [3] (setting [6]), 5000 pM. Further, in series [2], the solubility at 2 h was 4000 µg/mL.
